Values belong to the molecule of their own block, whether it stands above or below them.
How the values were obtained:
[1] = molecular target: glucose-dependent insulinotropic polypeptide receptor (GlPR) on GeneBLAzer GlPR-CRE-bla HEK293T cells (UniProt P48546); test: cell-based or functional assay
[2] = molecular target: GlP receptor (GlPR) of rat INS-1 insulinoma cells (UniProt P43219)
[3] = molecular target: T1, glucose-dependent insulinotropic polypeptide receptor (GlPR) (Homo sapiens, UniProt P48546); test: GeneBLAzer GlPR-CRE-bla HEK293T cell-based reporter assay; details: 5 hours incubation; for 460/530 ratio, indicative of the activation of GlPR: increasing amounts
T1 construct: host or cells: GeneBLAzer GIPR-CRE-bla HEK293T cells
T1 sequence (P48546 22-466): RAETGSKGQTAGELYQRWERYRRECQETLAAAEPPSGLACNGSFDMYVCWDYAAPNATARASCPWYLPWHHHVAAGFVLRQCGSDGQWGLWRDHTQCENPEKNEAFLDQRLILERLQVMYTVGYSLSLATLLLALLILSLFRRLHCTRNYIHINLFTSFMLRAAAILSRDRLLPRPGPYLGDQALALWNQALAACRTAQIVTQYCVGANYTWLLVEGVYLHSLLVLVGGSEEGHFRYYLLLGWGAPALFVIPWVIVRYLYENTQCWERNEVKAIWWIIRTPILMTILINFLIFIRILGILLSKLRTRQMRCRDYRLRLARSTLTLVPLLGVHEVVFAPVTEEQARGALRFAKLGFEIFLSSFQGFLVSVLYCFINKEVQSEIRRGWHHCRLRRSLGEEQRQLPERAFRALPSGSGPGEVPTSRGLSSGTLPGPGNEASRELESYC
Procedure: This assay is diagrammatically represented in FIG. 3A. […] In the presence of the β-lactamase LiveBLAzer™ substrate, cells expressing β-lactamase fluoresce blue (460 nm), while those not expressing β-lactamase fluoresce green (530 nm); higher 460/530 ratio indicates the activation of GlPR.
Briefly, GeneBLAzer® GlPR-CRE-bla HEK293T cells were added to wells of black-wall assay plates. […] To each well, LiverBLAzer-FRET B/G substrate mixture was added. The plate was covered with plate sealer and incubated at room temperature for 2 hours in the dark. Fluorescence emission was measured on SpectraMax plate reader at 460 nm and 530 nm with excitation set to 409 nm. After subtraction of background, average value at 460 nm (blue color) was divided by average value at 530 nm (green color) to obtain the 460/530 ratio.

GlP receptor (GlPR) = molecular target: T2, GlP receptor (GlPR) (Rattus norvegicus, UniProt P43219); test: cAMP-Glo assay in rat insulinoma INS-1 cells harboring a cAMP-luciferase reporter gene; assay type: cell-based; details: 1 hour glucose, then 2 hour incubation with increasing amounts
T2 construct: endogenous in cells; host or cells: rat INS-1 insulinoma cells carrying a cAMP reporter (a cAMP-luciferase reporter in A2, the pGloSensor-22F biosensor in A4)
T2 sequence (P43219 19-455): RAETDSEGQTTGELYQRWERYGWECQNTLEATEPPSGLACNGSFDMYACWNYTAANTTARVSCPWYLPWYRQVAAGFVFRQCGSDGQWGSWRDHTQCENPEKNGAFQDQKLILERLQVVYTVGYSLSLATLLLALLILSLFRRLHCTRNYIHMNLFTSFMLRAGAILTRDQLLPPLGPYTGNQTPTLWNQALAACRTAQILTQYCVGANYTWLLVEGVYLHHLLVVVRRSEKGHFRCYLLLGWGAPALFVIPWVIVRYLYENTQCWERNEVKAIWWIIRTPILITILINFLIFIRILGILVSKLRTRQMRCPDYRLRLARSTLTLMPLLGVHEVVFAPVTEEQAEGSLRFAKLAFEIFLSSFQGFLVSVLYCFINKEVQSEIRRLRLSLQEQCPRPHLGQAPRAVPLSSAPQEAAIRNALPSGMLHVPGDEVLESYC
Source text: Rat insulinoma INS-1 cells harboring a cAMP-luciferase reporter gene were used to study the activation of GlPR. Without wishing to be bound by theory, the activation of GlPR leads to temporary depletion of ATP because of consumption of ATP in cyclization reaction to produce cAMP as well as by phosphorylation by protein kinase A of its substrate. Without wishing to be bound by theory, the temporary depletion of ATP leads to an inhibition of luciferase activity, which needs ATP as a substrate.

[4] = Glucose tolerance test (GTT) model in HFD-fed mice; assay type: in vivo, mice (Male C57BL/6); details: i.v. treatment, 18 hours fast, 2 g/kg glucose, 15 min to 2 hours
Procedure: Cages were changed once, then changed once a week.
The mice administered the above treatment by i.v. injections. The mice were then fasted for 18 hours and administered a dose of 2 g/kg glucose by i.v. injections. Blood samples were drawn by tail clip bleeding at 15, 30 and 60 minutes post dosing and cardiac bleeding was used at 2 hours after glucose injection as end-point.

[5] = Longer-term obesity model in HFD-fed mice
Procedure: Mice (Male C57BL/6) were of approximately 13 weeks of age were housed 4 mice per cage. Following 2 weeks of acclimatation, mice were introduced to 60% kcal HFD (Research Diets D12492). Cages were changed once, then changed once a week. Weekly body weights and non-fasted blood glucose were collected.
Mice were injected by tail vein with vehicle or the drugs on Day 0, Day 4, Day 7, Day 10, Day 14, and Day 18. Body weights were measured every 2 days. Change in body weight was calculated and plotted.
Cumulative food intake was measured between day 0 and 3, between day 4 and 7, between day 7 and day 11, and between day 11 and day 14, and represented as average daily food intake. For food consumption, remaining food was weighed on days 3, 8, and 15, and subtracted from the starting weight. This value was then normalized to the number of mice in the cage, and the number of days the mice had access to the food prior to weighing.
Blood glucose levels were measured on Days 0, 1, 10 and 15 and plotted.
On day 19 during terminal necropsy, liver and subcutaneous white adipose tissue were recovered weighed from treated animals.
To further analyze the changes in liver, histopathological analysis was conducted. Briefly, the liver tissue was stained with hematoxylin and eosin (H&E) and evaluated using standard techniques.

[6] = human NASH patients; cited from earlier work
recombinant human GDF-8 = molecular target: T3, recombinant human GDF-8 (Homo sapiens, UniProt O14793); test: MSD platform-based binding assay to plate-bound GDF-8; details: 3× serial dilutions of culture supernatants of HEK293T cells transfected with mmRNA constructs
T3 sequence (O14793 267-375): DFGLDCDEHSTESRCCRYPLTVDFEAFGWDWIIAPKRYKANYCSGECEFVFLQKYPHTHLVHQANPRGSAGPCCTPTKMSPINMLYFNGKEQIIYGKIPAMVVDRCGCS
Procedure: (§1) The binding by a recombinant human ACVR2B-Fc fusion protein to GDF-8 (also known as myostatin) was characterized using a Meso Scale Discovery (MSD) platform-based assay. Briefly, GDF-8 was coated on a plate and 8× serial dilutions of the purified recombinant human ACVR2B-Fc fusion protein were also added in a series of wells. The protein captured by the plate-bound GDF-8 was detected using an anti-human Fc antibody and a SULFO-TAG conjugated secondary antibody.
(§2) The binding to GDF-8 by the GLP-1-Fc-ACVR2B fusion protein produced using the mmRNA constructs was investigated using a Meso Scale Discovery (MSD) platform-based assay. Briefly, HEK293T cells were transfected with each mRNA construct using lipofectamine 2000, and culture supernatants were collected after 48 hours. GDF-8 was coated on a plate, and 3× serial dilutions of the culture supernatants were added to the plate for capture by the plate-bound GDF-8. The protein captured by the plate-bound GDF-8 was detected using an anti-human Fc antibody and a SULFO-TAG conjugated secondary antibody. The MSD signals generated by the culture supernatants of HEK293T cells transfected with different mmRNA constructs were plotted as a line graph.

[7] = molecular target: T4, recombinant human Activin A (Homo sapiens, UniProt P08476); test: MSD platform-based binding assay to plate-bound Activin A; details: 3× serial dilutions of culture supernatants of HEK293T cells transfected with mmRNA constructs
T4 sequence (P08476 311-426): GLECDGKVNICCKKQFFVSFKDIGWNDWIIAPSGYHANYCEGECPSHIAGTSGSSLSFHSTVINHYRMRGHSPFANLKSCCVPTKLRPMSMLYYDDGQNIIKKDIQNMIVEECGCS
Procedure: as §1, with “to activin A” for “to GDF-8”, “as Inhibin beta A)” for “as myostatin)”, “Briefly, Activin A” for “Briefly, GDF-8”, “plate-bound Activin A” for “plate-bound GDF-8”
as §2, with “Activin A” for “GDF-8”, “Activin A.” for “GDF-8.”

[8] = tested on: rat insulinoma INS-1 cells; test: in vitro glucose-stimulated insulin secretion (GSIS) in INS-1 cells; assay type: cell-based; details: 1 hour glucose, then 2 hour incubation; ELISA
Source text: X is a known inducer of GSIS.

[9] = day 19 terminal necropsy, vs PBS control

EC50 of GlPR activation (460/530 ratio, GeneBLAzer GlPR-CRE-bla HEK293T beta-lactamase reporter) [1]: 11.8 pM
EC50 (read off the curve): fall of cAMP-Glo luminescence, rat INS-1 cells [2]: 0.007 pM
Molecule: GlP(Ag)-Fc fusion protein (from UniProt P09681 52-93)

binding to GDF-8 (recombinant human GDF-8): binds to the human GDF-8
binding to Activin A [7]: binds to the human Activin A
B1: GLP-1-Fc-ACVR2B chimeric protein: GLP-1 fused to ACVR2B extracellular domain via a hinge-CH2-CH3 Fc domain derived from IgG1; SEQ ID NO: 154 (protein)
chain: SGRGEAETRECIYYNANWELERTNQSGLERCEGEQDKRLHCYASWRNSSGTIELVKKGCWLDDFNCYDRQECVATEENPQVYFCCCEGNFCNERFTHLPEAGGPEVTYEPPPTAPTLLT

EC50 ([3]; 460/530 ratio, purified proteins, read-out: EC50 of GlPR activation): 13.1 pM
B2: GlP(Ag)-Fc-FGF19: GlP fused to FGF19 via a hinge-CH2-CH3 Fc domain derived from IgG1; SEQ ID NO: 88 (protein)
chain: YAEGTFISDYSIAMDKIHQQDFVNWLLAQKGKKNDWKHNITQPCPAPEAAGGPSVFLFPPKPKDTLMISRTPEVTCVVVDVSHEDPEVKFNWYVDGVEVHNAKTKPREEQYNSTYRVVSVLTVLHQDWLNGKEYKCKVSNKALPAPIEKTISKAKGQPREPQVYTLPPSRDELTKNQVSLTCLVKGFYPSDIAVEWESNGQPENNYKTTPPVLDSDGSFFLYSKLTVDKSRWQQGNVFSCSVMHEALHNHYTQKSLSLSPGKIEGRMDRDSSPLVHYGWGDPIRLRHLYTSGPHGLSSCFLRIRADGVVDCARGQSAHSLLEIKAVALRTVAIKGVHSVRYLCMGADGKMQGLLQYSEEDCAFEEEIRPDGYNVYRSEKHRLPVSLSSAKQRQLYKNRGFLPLSHFLPMLPMVPEEPEDLRGHLESDMFSSPLETDSMDPFGLVTGLEAVRSPSFEK
460/530 ratio, indicative of the activation of GlPR [3]: dose-dependent and saturable increase in 460/530 ratio
luciferase activity (cAMP-Glo), activation of GlPR (GlP receptor (GlPR)): dose-dependent and saturable inhibition of luciferase with similar potency
insulin in the culture supernatant (GSIS) [8]: stimulated insulin production to a similar, if not greater magnitude than dulaglutide or tirzepatide

The remaining lines, values behind:

Molecule: tirzepatide [reference compound]
460/530 ratio, indicative of the activation of GlPR [3]: dose-dependent and saturable increase in 460/530 ratio
luciferase activity (cAMP-Glo), activation of GlPR (GlP receptor (GlPR)): dose-dependent and saturable inhibition of luciferase with similar potency
serum insulin following glucose administration [4]: rapid induction of insulin
serum glucose following glucose administration ([4]; vs PBS control): much smaller increase in serum glucose
blood glucose levels ([5]; Days 0, 1, 10 and 15, compared to the untreated mice): decrease in blood glucose
plasma insulin levels on Day 15 ([5]; FIG. 8C right panel): significant decrease in the levels of insulin
average daily food intake ([5]; compared to the untreated mice): decrease in food intake
hepatocellular ballooning and steatosis, H&E under higher magnifications ([5]; compared to untreated animals): significant decrease in hepatocellular ballooning and steatosis
liver weight [5, 9]: livers of control mice that received only PBS were much heavier
subcutaneous white adipose tissue (sWAT) weight [5, 9]: decreased
change in body weight ([5]; tail vein dosing Day 0, 4, 7, 10, 14, 18, weighed every 2 days): progressive weight loss
collagen staining (fibrosis), picrosirius red liver sections ([5]; vs vehicle-treated mice): decrease in collagen staining
hepatocellular ballooning and steatosis, H&E liver histology ([5]; vs vehicle-treated mice): decrease in hepatocellular ballooning and steatosis

Molecule: Pegbelfermin [Pegbelfermin (BMS-986036)]
liver fat content [6]: reduce liver fat content

Reference: US20250066446A1, “FUSION PROTEINS FOR THE TREATMENT OF CARDIOMETABOLIC DISEASES” (Shattuck Labs, Inc., priority 2022, published 2025)
